# Test results from patent US8658670B2 (Crestone, Inc., priority 2006, dated 2014).
# Tests used:
# [1] = tested on: C. difficile strain ATCC43255 toxin A; assay: Toxin A production in high cell density stationary phase cultures (ELIFA); type: cell-based; conditions: 4 day old stationary phase cultures
# Description: C. difficile strain ATCC43255 was grown and maintained anaerobically on CDC anaerobe agar (Remel, Lenexa, Kans.). To test the effect of antibacterial agents on growth, cells were grown anaerobically for 40 h at 35° C. in 96-well brain heart infusion (BHI) broth cultures, with an initial inoculum of 10^6 CFU/mL. To test the effect of antibacterial agents on toxin production at high C. difficile cell densities, the cells were grown anaerobically for 24 h at 35° C. in 96-well brain heart infusion (BHI) broth cultures. Spent medium was then replaced with fresh broth containing MetRS inhibitors and control agents at a concentration range of 0.015-16 μg/mL. After 4 days, growth and cell viability were monitored by optical density measurements at 595 nm and by culture on CDC anaerobe agar, respectively. Culture supernatants were collected, and toxin A was detected by ELIFA (enzyme-linked immuno-flow assay) using an anti toxin A monoclonal antibody (Novus Biologicals, Centennial, Colo.).
# [2] = tested on: clinical isolates of C. difficile; assay: Sporulation of C. difficile clinical isolates; type: cell-based
# [3] = tested on: C. difficile; assay: C. difficile-infected hamster survival study; type: in vivo, hamsters
# Description: Animal studies were performed to determine the efficacy of MetRS inhibitors for treating C. difficile-infections. The MetRS inhibitors tested were two compounds of formula (II), 5-[3-((R)-6,8-Dibromo-chroman-4-ylamino)-propylamino]-4H-thieno[3,2-b]pyridine-7-one (both racemic mixture and the R enantiomer) and 5-[3-((R)-8-Bromo-6-chloro-chroman-4-ylamino)-propylamino]-4H-thieno[3,2-b]pyridin-7-one. Also tested was a compound of formula (IV), 2-(3-{3,5-Dibromo-2-[2-(4-methyl-thiazol-5-yl)-ethoxy]-benzylamino}-propylamino)-1H-quinolin-4-one.
# Results were compared to C. difficile-infected hamsters treated with the conventional antibiotic, vancomycin. Infected hamsters were treated with either a solution or suspension of a MetRS inhibitor at 5 to 50 mg/kg or vancomycin at 2.5, 5 or 25 mg/kg. There were eight hamsters per group with the final endpoint of the experiment being survival. Expired hamsters were examined for GI condition.
compound,measurement,setting,value
Cc1ncsc1CCOc1c(Br)cc(Br)cc1CNCCCNc1cc(=O)c2sccc2[nH]1,concentration inhibiting toxin production,[1],0.25 µg/mL
"Cl.Cl.Cl.O=c1cc(NCCCNC2CCNc3c(Br)cc(Br)cc32)[nH]c2ccsc12 (stereo not drawn) [5-[3-(6,8-Dibromo-1,2,3,4-tetrahydro-quinolin-4-ylamino)-propylamino]-4H-thieno[3,2-b]pyridin-7-one tri-hydrochloride]",concentration inhibiting toxin production,[1],0.25 µg/mL
"O=c1cc(NCCCNC2CCOc3c(Br)cc(Br)cc32)[nH]c2ccsc12 (stereo not drawn) [5-[3-(6,8-Dibromo-chroman-4-ylamino)-propylamino]-4H-thieno[3,2-b]pyridin-7-one]",concentration inhibiting toxin production,[1],0.25 µg/mL
"O=c1cc(NCCCN[C@@H]2CCOc3c(Br)cc(Br)cc32)[nH]c2ccsc12 [5-[3-((R)-6,8-Dibromo-chroman-4-ylamino)-propylamino]-4H-thieno[3,2-b]pyridine-7-one]",spores (ratio of spores to total cells),"[2]; 0.25×MIC, 96 hours, all strains",< 2%
same,spores (ratio of spores to total cells),"[2]; 0.5×MIC, 96 hours, all strains",< 1%
same,efficacy ranking among tested MetRS inhibitors,"[3]; infected hamsters, survival",best efficacy
"Cl.Cl.O=c1cc(NCCCN[C@@H]2CCOc3c(Br)cc(Br)cc32)[nH]c2ccsc12 [R-(+)-5-[3-(6,8-Dibromo-chroman-4-ylamino)-propylamino]-4H-thieno[3,2-b]pyridin-7-one di-hydrochloride]",concentration inhibiting toxin production,[1],0.25 µg/mL
"Cc1ncc([N+](=O)[O-])n1CCO [metronidazole, reference compound]",spores (ratio of spores to total cells),"[2]; subMIC concentrations, all tested strains",up to 100%
"CN[C@H](CC(C)C)C(=O)N[C@H]1C(=O)N[C@@H](CC(N)=O)C(=O)N[C@H]2C(=O)N[C@H]3C(=O)N[C@H](C(=O)N[C@H](C(=O)O)c4cc(O)cc(O)c4-c4cc3ccc4O)[C@H](O)c3ccc(c(Cl)c3)Oc3cc2cc(c3O[C@@H]2O[C@H](CO)[C@@H](O)[C@H](O)[C@H]2O[C@H]2C[C@](C)(N)[C@H](O)[C@H](C)O2)Oc2ccc(cc2Cl)[C@H]1O [vancomycin, reference compound]",survival,"[3]; Day 28, vancomycin treatment (2.5, 5 or 25 mg/kg)",0-10%
